# According to ChEMBL document CHEMBL1144064, “Biological evaluation of proanthocyanidin dimers and related polyphenols” (J Nat Prod, 1999):
# Activity calls are given as the source filed them. No cut-off for these calls is given here.
# Experiments:
# [1] = Antioxidant activity assessed as superoxide radical anion scavenging activity; assay type: functional
# [2] = tested on: Simplexvirus; experiment: Antiviral activity against HSV up to 200 ug/mL by extracellular virucidal assay; assay type: functional, organism-based
# [3] = Cytotoxicity against human MT4 cells by MTT assay; assay type: cell-based
# [4] = Selectivity index, ratio of CC50 for human MT4 cells to IC50 for HIV infected in human MT4 cells; assay type: functional
# [5] = tested on: Human immunodeficiency virus; experiment: Antiviral activity against HIV infected in human MT4 cells assessed as inhibition of virus-induced cytopathic effect by MTT assay; assay type: functional, organism-based; details: Human immunodeficiency virus 1, MT4
# [6] = tested on: Streptococcus pyogenes; experiment: Antimicrobial activity against Streptococcus pyogenes; assay type: functional
# [7] = tested on: Candida albicans; experiment: Antimicrobial activity against Candida albicans; assay type: functional
# [8] = tested on: Staphylococcus aureus; experiment: Antimicrobial activity against Staphylococcus aureus; assay type: functional
# [9] = tested on: Mycolicibacterium fortuitum; experiment: Antimicrobial activity against Mycobacterium fortuitum; assay type: functional
# [10] = tested on: Enterobacter cloacae; experiment: Antimicrobial activity against Enterobacter cloacae; assay type: functional
# [11] = tested on: Salmonella paratyphi; experiment: Antimicrobial activity against Salmonella paratyphi; assay type: functional, Salmonella enterica subsp. enterica serovar Paratyphi A; details: Salmonella enterica
# [12] = tested on: Pseudomonas aeruginosa; experiment: Antimicrobial activity against Pseudomonas aeruginosa; assay type: functional
# [13] = tested on: Escherichia coli; experiment: Antimicrobial activity against Escherichia coli; assay type: functional
# [14] = Modulation of classical complement pathway system assessed as hemoglobin release by spectrophotometry
# [15] = Modulation of alternative complement pathway system assessed as hemoglobin release by spectrophotometry
# [16] = tested on: Proteus vulgaris; experiment: Antimicrobial activity against Proteus vulgaris; assay type: functional
SMILES,IC50 [1] [µM],Activity [2],CC50 [3] [µg/mL],Ratio CC50/IC50 [4],IC50 [5] [µg/mL],MBC [7] [µg/mL],MIC [7] [µg/mL],MBC [8] [µg/mL],MIC [8] [µg/mL],MBC [9] [µg/mL],MIC [9] [µg/mL],MBC [10] [µg/mL],MIC [10] [µg/mL],MBC [11] [µg/mL],MIC [11] [µg/mL],MBC [12] [µg/mL],MIC [12] [µg/mL],MBC [13] [µg/mL],MIC [13] [µg/mL],IC50 [14] [µM],also measured
Oc1cc(O)c2c(c1)O[C@H](c1ccc(O)c(O)c1)[C@@H](O)[C@@H]2c1c(O)cc(O)c2c1O[C@H](c1ccc(O)c(O)c1)[C@H](O)C2,30,inactive,0.3,<1,> 0.3,> 100,> 100,> 100,> 100,> 100,> 100,> 100,> 100,> 100,> 100,> 100,> 100,> 100,> 100,45.5,MBC [6]: 50 µg/mL; MIC [6]: 25 µg/mL; Activity [15]: inactive
Oc1cc(O)c2c(c1)O[C@H](c1ccc(O)c(O)c1)[C@@H](O)[C@@H]2c1c(O)cc2c(c1O)C[C@@H](O)[C@@H](c1ccc(O)c(O)c1)O2,32.9,inactive,127,8,19.6,> 100,> 100,> 100,> 100,> 100,> 100,> 100,> 100,> 100,> 100,> 100,> 100,> 100,> 100,19.7,IC50 [15]: 83.7 µM
Oc1cc(O)c2c(c1)O[C@H](c1cc(O)c(Oc3cc(O)c4c(c3)O[C@H](c3cc(O)c(O)c(O)c3)[C@H](O)C4)c(O)c1)[C@@H](O)C2,2,–,–,–,–,> 100,> 100,> 100,> 100,> 100,> 100,> 100,> 100,> 100,> 100,> 100,> 100,> 100,> 100,14.6,IC50 [15]: 86 µM
Oc1cc(O)c2c(c1)O[C@H](c1ccc(O)c(O)c1)[C@@H](O)[C@@H]2c1c(O)cc(O)c2c1O[C@H](c1ccc(O)c(O)c1)[C@@H](O)C2,41.3,inactive,118,5,27,> 100,> 100,> 100,> 100,> 100,> 100,> 100,> 100,> 100,> 100,> 100,> 100,> 100,> 100,37.7,Activity [15]: inactive
Oc1cc(O)c2c(c1)O[C@H](c1ccc(O)c(O)c1)[C@@H](O)[C@@H]2c1c(O)cc2c(c1O)C[C@H](O)[C@@H](c1ccc(O)c(O)c1)O2,27.3,inactive,141,5,29.9,> 100,> 100,> 100,> 100,> 100,> 100,> 100,> 100,> 100,> 100,> 100,> 100,> 100,> 100,18.5,MBC [6]: 100 µg/mL; MIC [6]: 100 µg/mL; Activity [15]: inactive
Oc1cc(O)c2c(c1)O[C@H](c1ccc(O)c(O)c1)[C@H](O)[C@H]2c1c(O)cc2c(c1O)C[C@@H](O)[C@@H](c1ccc(O)c(O)c1)O2,11.4,inactive,53.5,9,8.3,> 100,> 100,> 100,> 100,> 100,> 100,> 100,> 100,> 100,> 100,> 100,> 100,> 100,> 100,51.7,MBC [6]: 100 µg/mL; MIC [6]: 100 µg/mL; Activity [15]: inactive
O=C1c2c(O)cc(O)cc2O[C@H](c2ccc(O)c(O)c2)[C@H]1O [(+)-TAXIFOLIN],24.2,inactive,25.4,<1,> 25.4,> 100,> 100,> 100,> 100,> 100,> 100,> 100,> 100,> 100,> 100,> 100,> 100,> 100,> 100,850,Activity [15]: inactive
Oc1cc(O)c2c(c1)O[C@H](c1ccc(O)c(O)c1)[C@H](O)C2 [(-)-EPICATECHIN],18.3,–,136,4,34.1,> 100,> 100,> 100,> 100,> 100,> 100,> 100,> 100,> 100,> 100,> 100,> 100,> 100,> 100,656,Activity [15]: inactive
Oc1cc(O)c2c(c1)O[C@H](c1ccc(O)c(O)c1)[C@@H](O)C2 [CIANIDANOL],13.1,–,86.8,<1,> 86.8,> 100,> 100,> 100,> 100,> 100,> 100,> 100,> 100,> 100,> 100,> 100,> 100,> 100,> 100,647,Activity [15]: inactive
Oc1cc(O)c2c(c1)O[C@@]1(c3ccc(O)c(O)c3)Oc3cc(O)c4c(c3[C@@H]2[C@H]1O)O[C@H](c1ccc(O)c(O)c1)[C@@H](O)C4 [PROANTHOCYANIDIN A1],14.7,inactive,144,10,14,> 100,> 100,> 100,> 100,> 100,> 100,> 100,> 100,> 100,> 100,> 100,> 100,> 100,> 100,57.1,MIC [16]: 50 µg/mL; IC50 [15]: 105 µM
Oc1cc(O)c2c(c1)O[C@H](c1ccc(O)c(O)c1)[C@H](O)[C@H]2c1c(O)cc(O)c2c1O[C@H](c1ccc(O)c(O)c1)[C@@H](O)C2 [PROCYANIDIN B1],–,–,–,–,–,> 100,> 100,> 100,> 100,> 100,> 100,> 100,> 100,> 100,> 100,> 100,> 100,> 100,> 100,31.3,IC50 [15]: 72 µM
Oc1cc(O)c2c(c1)O[C@H](c1ccc(O)c(O)c1)[C@H](O)[C@H]2c1c(O)cc(O)c2c1O[C@H](c1ccc(O)c(O)c1)[C@H](O)C2 [PROCYANIDIN B2],10.5,inactive,135,8,17.2,> 100,> 100,> 100,> 100,> 100,> 100,> 100,> 100,> 100,> 100,> 100,> 100,> 100,> 100,58,MBC [6]: 100 µg/mL; MIC [6]: 100 µg/mL; Activity [15]: inactive
Oc1cc(O)c2c(c1)O[C@H](c1ccc(O)c(O)c1)[C@H](O)[C@H]2c1c(O)cc(O)c2c1O[C@H](c1ccc(O)c(O)c1)[C@H](O)[C@H]2c1c(O)cc(O)c2c1O[C@H](c1ccc(O)c(O)c1)[C@H](O)C2 [PROCYANIDIN C1],10.7,inactive,16.5,5,4.3,> 100,> 100,> 100,> 100,> 100,> 100,> 100,> 100,> 100,> 100,> 100,> 100,> 100,> 100,6,MBC [6]: 100 µg/mL; MIC [6]: 100 µg/mL; IC50 [15]: 85.5 µM
O=C(/C=C/c1ccc(O)c(O)c1)O[C@H](Cc1ccc(O)c(O)c1)C(=O)O [ROSMARINIC ACID],–,–,–,–,–,–,–,–,–,–,–,–,–,–,–,–,–,–,–,21.9,IC50 [15]: 408 µM
Cc1cn([C@H]2C[C@H](N=[N+]=[N-])[C@@H](CO)O2)c(=O)[nH]c1=O [ZIDOVUDINE],–,–,2.58,–,0.0002,–,–,–,–,–,–,–,–,–,–,–,–,–,–,–,–
